Series [1] concerns bone marrow progenitor cell. The experiment in a line: Bone marrow progenitor cells (CFU-GEMM) after tricaprin, compound I or both in CY-treated mice (Example 3). It is filed as in vivo, C57BL/6 mice. Conditions: tricaprin 60.5 mM oral and/or compound I 50 mg/kg. As to the method: (§1) Female C57BL/6 mice, 6 to 8 weeks old, were immunosuppressed by treatment with 200 mg/kg of cyclophosphamide (CY) administered intravenously at day 0. To examine the chemoprotective effect of compound I, mice were pre-treated intraperitoneally at day −3, −2 and −1 with 50 mg/kg of the compound. Mice were sacrificed at day +5 by cardiac puncture and cervical dislocation. Then, cell suspensions were prepared from thymus, spleen and bone marrow as follows.
(§2) The effect of tricaprin, compound I, and the combination of both compounds on in vivo induction of hematopoietic cell proliferation or protection was determined following the protocol described in Example 1. Oral administration of tricaprin (60.5 mM) and/or peritoneal injection of compound I were performed on day −3, −2 and −1.

Series [2] concerns hematopoietic cells. Briefly: Chemoprotection: in vivo protection of hematopoietic cells by compound I in CY-immunosuppressed mice (Example 1). More on the design: species or system C57BL/6 mice. Conditions: for Cell count, peripheral blood white cells / Cell count, spleen red cells / Cell count, spleen white cells: CY 200 mg/kg i.v. day 0, compound I 50 mg/kg i.p. day −3, −2, −1, sacrifice day +5. As to the method: as §1
(§3) Tissues were crushed in PBS buffer and contaminating erythrocytes were lysed in ACK buffer (155 mM NH4Cl, 12 mM NaHCO3, 0.1 mM EDTA, pH 7.3) for five minutes. Cells were then collected by centrifugation and washed three times in PBS and resuspended in tissue culture medium. Cells were counted with a Coulter counter.

Series [3] relates to hematopoietic cells. Briefly: Chemoprotection: in vivo protection of hematopoietic cells by compound II in CY-treated mice (Example 4). The arrangement: species or system C57BL/6 mice. Here is the method: as §1, §3
The effect of compound II on in vivo induction of hematopoietic cell proliferation or protection was determined following the protocol described in Example 1. Oral administration of compound II (50 mg/kg or 100 mg/kg) was performed on day −3, −2 and −1.

Series [4] relates to bone marrow red cells. Briefly: Chemoprotection: combination of tricaprin and compound I in CY-treated mice, bone marrow red cell count (Example 3). Type of series: in vivo, C57BL/6 mice. Particulars: tricaprin 60.5 mM oral and/or compound I 50 mg/kg peritoneal injection, day −3, −2, −1. As to the method: as §1, §3, §2
For series [5] the following is noted: rat, in vivo, po; cited from earlier work.
The subject of series [6] is hematopoietic cells. The experiment in a line: Chemoprotection: combination of histamine dihydrochloride and compound I in CY-treated mice (Example 6). Type of series: in vivo, C57BL/6 mice. Particulars: for Effect on bone marrow white cell count (FIG. 5): intravenous histamine dihydrochloride 25 mg/kg and/or compound I 5 mg/kg, day −3, −2, −1, CY-treated mice, compared to CY. Here is the method:
(§4) Mice were sacrificed at day +5 by cardiac puncture and cervical dislocation. Then, cell suspensions were prepared from thymus, spleen and bone marrow as follows. Tissues were crushed in PBS buffer and contaminating erythrocytes were lysed in ACK buffer (155 mM NH4Cl, 12 mM NaHCO3, 0.1 mM EDTA, pH 7.3) for five minutes. Cells were then collected by centrifugation and washed three times in PBS and resuspended in tissue culture medium. Cells were counted with a Coulter counter. Effect of low dose of histamine, compound I, and the combination of both compounds on in vivo induction of hematopoietic cell proliferation or protection was undertaken following the protocol described in Example 1.

For series [7] the following is noted: cited from earlier work.
Series [8] concerns CTLs. Particulars: compared with interleukin 2; cited from earlier work.
Series [9] deals with MC-38 colon cancer. Briefly: Survival of mice with MC-38 colon cancer treated with a toxic regimen of 5-fluorouracil. It is filed as in vivo. Particulars: compound I plus toxic regimen of 5-fluorouracil versus 5-fluorouracil alone (e.g., 40 mg/kg).
For series [10] the following is noted: i.v., rat; cited from earlier work.
The test system of series [11] is hematopoietic cells. The experiment in a line: Chemoprotection: combination of sodium caprate and compound I in CY-treated mice (Example 2). It is filed as in vivo, C57BL/6 mice. Particulars: for Effect on bone marrow red cell count (FIG. 2) / Effect on bone marrow white cell count (FIG. 3): low dose, intravenous: sodium caprate 1.21 mM, compound I 5 mg/kg, sodium caprate or compound I used alone; for Effect on peripheral red blood cell count (FIG. 1): sodium caprate 60.5 mM oral and/or compound I 50 mg/kg i.p., day −3, −2, −1, versus respective CY control.

The test system of series [12] is hematopoietic cells. The experiment in a line: Chemoprotection: combination of histamine dihydrochloride and compound II in CY-treated mice (Example 7). Type of series: in vivo, C57BL/6 mice. Particulars: histamine dihydrochloride 25 mg/kg i.v. and/or compound II 100 mg/kg oral, day −3, −2, −1, compared to CY. Here is the method:
as §1, §3
Effect of low dose of histamine, compound II, and the combination of both compounds on in vivo induction of hematopoietic cell proliferation or protection was undertaken following the protocol described in Example 1. Intravenous administration of histamine dihydrochloride (25 mg/kg) and oral administration of compound II (100 mg/kg) were performed on day −3, −2 and −1.

Series [13] concerns hematopoietic cells. The experiment in a line: Chemoprotection: combination of sodium caprate and compound II in CY-treated mice (Example 5). Type of series: in vivo, C57BL/6 mice. Particulars: oral sodium caprate 60.5 mM and/or compound II 50 mg/kg or 100 mg/kg, day −3, −2, −1. As to the method: as §4, with “The effect” for “Effect”, “sodium caprate,” for “low dose of histamine,”, “II,” for “I,”, “determined” for “undertaken”

Setting [14] is: CY alone (200 mg/kg i.v. day 0).
Where [15] appears, read: pre-treatment 50 mg/kg i.p. in CY-treated mice, versus CY.
The mark [16] stands for this setting: CY + compound II 50 mg/kg oral, day −3, −2, −1.
Where [17] appears, read: CY + compound II 100 mg/kg oral, day −3, −2, −1.
[18] abbreviates: oral pre-treatment in CY-treated mice, dose not given.

Like-named read-outs stand apart in the source and are kept apart here.

The values that follow come from patent publication US20080090848A1, “Substituted Purinyl Derivatives With Immunomodulator And Chemoprotective Activity And Use Alone Or With Medium-Chain Length Fatty Acids Or Glycerides” (priority 2004, published 2008).

For the molecule `O=P1(N(CCCl)CCCl)NCCCO1` (stereo not shown) [CY, cyclophosphamide, reference compound], the “CFU-GEMM (colony number), bone marrow” value in [1] was determined as 1 colony number. In [2], the “Cell count, peripheral blood white cells” value was 1.3 ± 0.6 10^6; the “Cell count, spleen red cells” value was 341 ± 107 10^6; the “Cell count, spleen white cells” value was 34. ± 9 10^6. In series [3] (setting [14]), the “Cell count, bone marrow red cells” value was 31.6 ± 5.0 10^6 and the “Cell count, bone marrow white cells” value is listed as 19.8 ± 4.4 10^6. The “Bone marrow red cell count” value in series [4] is listed as 31.5 ± 3.5 10^6.

Turning to `CCCCCCCCCC(=O)OCC(COC(=O)CCCCCCCCC)OC(=O)CCCCCCCCC` [Tricaprin, tricaprin], the “CFU-GEMM (colony number), bone marrow” value in series [1] was determined as 0.5 colony number. Moreover, in series [4], the “Bone marrow red cell count” value was 33.8 ± 3.7 10^6.

Turning to `CCCCCCCC(=O)O` [caprylic acid], the LD50 in series [5] is 10080 mg/kg.

As to `CN(C)c1ncnc2c1ncn2CCCCCOC(=O)NC(CCCNC(=N)N)C(=O)O` (stereo not drawn) [compound I, [[5-[6-(N,N-dimethylamino)purin-9-yl]pentoxy]-carbonyl]d-arginine], the “Effect on bone marrow white cell count (FIG. 5)” value in [6] is recorded as “No significant effect”. The “In vivo antitumor activity” value in series [7] is recorded as “significant in vivo antitumor activity”. For the same molecule, the “CFU-GEMM (colony number), bone marrow” value in series [1] came out at 1 colony number. The “In vitro stimulation of CTLs” value in [8] was “comparable to the immune growth factor or cytokine interleukin 2”. Moreover, in [2], the “Cell count, peripheral blood white cells” value is 2.6 ± 0.6 10^6; the “Cell count, spleen red cells” value is given as 468 ± 104 10^6; the “Cell count, spleen white cells” value is given as 48 ± 5 10^6. Further, the “Spleen red cell count compared to non-immunosuppressed animals (control)” value in series [2] (pre-treatment 50 mg/kg i.p. in CY-treated mice) is recorded as “some treated animals returned to a “baseline level””. In addition, in [2] (setting [15]), the “Effect on peripheral white blood cell count (in words)” value was “significant increase”, the “Effect on spleen red cell count (in words)” value was “significant increase” and the “Effect on spleen white cell count (in words)” value is “significant increase”. Besides, the “Bone marrow red cell count” value in series [4] was 37.4 ± 7.1 10^6. Also, the Survival of animals entry in series [9] is “improved survival”. In [10], the median lethal dose (LD50) result is “more than 500 mg/kg”. Moreover, in series [11], the “Effect on bone marrow red cell count (FIG. 2)” value is “No effect”, the “Effect on bone marrow white cell count (FIG. 3)” value is “No effect” and the “Effect on peripheral red blood cell count (FIG. 1)” value is “significant increase”.

In the case of `CN(C)c1ncnc2c1ncn2CCCCCO` [compound II], in [12], the “Effect on spleen white cell count (FIG. 7)” value was “No significant effect”. In series [3] (setting [16]), the “Cell count, bone marrow red cells” value is recorded as 29.4 ± 2.7 10^6 and the “Cell count, bone marrow white cells” value was 17.4 ± 3.5 10^6. In addition, in series [3] (setting [17]), the “Cell count, bone marrow red cells” value is 43.9 ± 16.3 10^6 and the “Cell count, bone marrow white cells” value is 30.5 ± 9.4 10^6. Moreover, the “Bone marrow red and white cell counts compared to non-immunosuppressed animals (control)” value in series [3] (oral pre-treatment in CY-treated mice) was “some treated animals return to a “baseline level””. Moreover, in [3] (setting [18]), the “Effect on bone marrow red cell count (in words)” value was “significant increase” and the “Effect on bone marrow white cell count (in words)” value was “significant increase”.

Consider `Cl.Cl.NCCc1c[nH]cn1` [histamine, histamine dihydrochloride], for which the Stimulation of hematopoiesis entry in [6] (histamine alone, general statement) is on record as “weakly stimulate hematopoiesis”. The “Effect on bone marrow white cell count (FIG. 5)” value in series [6] was “No significant effect”. Besides, in [12], the “Effect on spleen white cell count (FIG. 7)” value is on record as “No significant effect”.

On to `c1ccc([C@H]2CN3CCSC3=N2)cc1` [levamisole, reference compound], for which the LD50 in series [10] was 16 mg/kg.

With `CCCCCCCCCC(=O)[O-].[Na+]` [sodium caprate], the “Effect on peripheral red blood cell count (FIG. 4)” value in [13] was “weak increase”. In [11], the “Effect on bone marrow red cell count (FIG. 2)” value is on record as “No effect”, the “Effect on bone marrow white cell count (FIG. 3)” value is recorded as “No effect” and the “Effect on peripheral red blood cell count (FIG. 1)” value was “significant increase”.

The term LD50 denotes the dose expected to kill half of the subjects tested.
